Measured values: PubChem BioAssay (NCI)
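Abbreviation: GI50, concentration required for 50% inhibition of growth. The concentration for full growth arrest is given as TGI.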

Assays:
Assay in all cases: DTP human tumour cell line panel, 384-well format
[1] = system: EKVX NSCLC
[2] = system: HCT-116 colon
[3] = system: IGROV1 ovarian
[4] = system: KM12 colon
[5] = system: M14 melanoma
[6] = system: MCF7 breast
[7] = system: NCI-H522 lung
[8] = system: SK-OV-3 ovarian
[9] = system: SNB-19 CNS
[10] = system: SW-620 colon
[11] = system: U251 glioblastoma
[12] = system: UACC-257 melanoma
[13] = system: UACC-62 melanoma

## Cc1[nH]c2ccccc2c1CCNCc1ccc(/C=C/C(=O)NO)cc1
[1]
  GI50: 42.7 nM
  TGI: 398 nM
[2]
  GI50: < 10 nM
  TGI: 17.9 nM
[3]
  GI50: 10.8 nM
  TGI: 26.4 nM
[4]
  GI50: 23.1 nM
  TGI: 94.8 nM
[5]
  GI50: 14.7 nM
  TGI: 82.2 nM
[6]
  GI50: < 11 nM
  TGI: 25.9 nM
[7]
  GI50: < 10 nM
  TGI: 18.5 nM
[8]
  GI50: 15.4 nM
  TGI: 33.3 nM
[9]
  GI50: 23.4 nM
  TGI: 65.3 nM
[10]
  GI50: 12.3 nM
  TGI: 25.5 nM
[11]
  GI50: 12.2 nM
  TGI: 26.8 nM
[12]
  GI50: < 10.7 nM
  TGI: 24.4 nM
[13]
  GI50: < 10 nM
  TGI: 16.1 nM

## COCCNc1cc(NC(=O)N2CCCc3cc(CN4CCN(C)CC4=O)c(C=O)nc32)ncc1C#N
[1]
  GI50: > 100000 nM
  TGI: > 100000 nM
[2]
  GI50: > 100000 nM
  TGI: > 100000 nM
[3]
  GI50: > 100000 nM
  TGI: > 100000 nM
[4]
  GI50: > 100000 nM
  TGI: > 100000 nM
[5]
  GI50: > 100000 nM
  TGI: > 100000 nM
[6]
  GI50: > 100000 nM
  TGI: > 100000 nM
[7]
  GI50: > 42200 nM
  TGI: > 100000 nM
[8]
  GI50: > 100000 nM
  TGI: > 100000 nM
[9]
  GI50: > 100000 nM
  TGI: > 100000 nM
[10]
  GI50: > 100000 nM
  TGI: > 100000 nM
[11]
  GI50: > 100000 nM
  TGI: > 100000 nM
[12]
  GI50: > 100000 nM
  TGI: > 100000 nM
[13]
  GI50: > 100000 nM
  TGI: > 100000 nM
